Like-named read-outs stand apart in the source and are kept apart here. Each block holds one compound with its values, some of them ahead of it.
What was measured:
[1] = test system: TGF-β1 induced α-smooth muscle actin (αSMA) production by IPF diseased donor's lung fibroblast; assay: Fibroblast-to-Myofibroblast Transition (FMT) assay; format: cell-based; details: for IC50: Fibroblast, 72 h, 1.25 ng/ml TGF-β1, 72 h, read-out: IC50 αSMA, Log (converted); for Potential toxicity Log [M]: concentration with >25% cell loss (DAPI nuclei); for Max. Percentage Inhibition (PIN), [%]: αSMA
Description: Lung fibroblasts from 3 IPF donors (Pat1-3) were seeded for automated high-content/high-throughput microscopy. At day 2 cell culture medium was refreshed in the wells and fibroblast grown until day 5, at which point drug treatment was initiated.
Drug addition was done 1 h before stimuli addition (1.25 ng/ml TGF-β1). For trigger controls wells with fibroblasts were treated with medium (unstimulated control) or 1.25 ng/ml TGF-β1 (stimulated control). For assay controls fibroblasts were treated with 1.25 ng/ml TGF-β1+0.1% DMSO (unstimulated control) or 1.25 ng/ml TGF-β1+1 μM SB525334 (positive control for inhibition). Reference compound and clinically approved drug nintedanib was added as concentration response curve (CRC) with 8-points in a semi-Log dilution starting from 10 μM.
Wells were fixed with 4% paraformaldehyde and stained for α-smooth muscle actin (αSMA) expression using immunofluorescence and with DAPI to assess nuclei number per well. Image acquisition and high content analysis (HCA) of αSMA and DAPI was done on a high content microscope.
(§1) Analysis of αSMA/FN1: Images were segmented and quantificatied for αSMA/FN1 immunoreactivity by an HCA algorithm, with density x area (DxA) output. Data were normalized from raw αSMA/FN1 (DxA) to percentage inhibition (PIN) values, on a plate-to-plate basis
(§2) [formula] • μp is the average αSMA/FN1 value of the positive control (TGF-β1+1 μM SB525334) • μn is the average of αSMA/FN1 value of the vehicle control (TGF-β1+0.1% DMSO) • Xi is the compound αSMA/FN1 value
(§3) Analysis of % Remaining cells: DAPI fluorescence applied for HCA-based quantification of the number of imaged cells, on a plate-to-plate basis.
(§4) [formula] • μn is the average numbers of nuclei of the vehicle control (TGF-β1+0.1% DMSO) • Xi is the compound number of nuclei

[2] = test system: TGF-β1 induced Fibronectin 1 (FN1) production by IPF diseased donor's bronchial epithelial cells; assay: Epithelial-to-Mesenchymal Transition (EMT) assay; format: cell-based; design: Δ Percentage Inhibition (PIN), [%]: concentration or dose not given beside the values; details: for IC50: Epithelial cell, 72 h, 5.0 ng/ml TGF-β1, 72 h, read-out: IC50 FN1, Log (converted); for Δ Percentage Inhibition (PIN), [%]: FN1
Description: Bronchial epithelial cells (BEC) from 3 IPF donors (PatA-C) were seeded for automated high-content/high-throughput microscopy. At day 2 cell culture medium was refreshed in the wells and cells grown until day 5, at which drug treatment was initiated.
Drug addition was done 1 h before stimuli addition (5.0 ng/ml TGF-β1). For trigger controls wells with BEC were treated with medium (unstimulated control) or 5.0 ng/ml TGF-β1 (stimulated control). For assay controls fibroblasts were treated with 5.0 ng/ml TGF-β1+0.1% DMSO (unstimulated control) or 5.0 ng/ml TGF-β1+1 μM SB525334 (positive control for inhibition). The reference compound and clinically approved drug nintedanib was added as concentration response curve (CRC) with 8-points in a semi-Log dilution staring from 10 μM. […] Wells were fixed with 4% paraformaldehyde and stained for Fibronectin (FN1) expression using immunofluorescence and with DAPI to assess nuclei number per well. Image acquisition and high content analysis (HCA) of FN1 and DAPI was done on a high content microscope.
as §1, §2, §3, §4

[3] = test system: HCC827 lung cancer cells; assay: Fibrotic gene expression analysis by RNA sequencing; format: cell-based; details: 1 μM, 24 h vs DMSO
Description: (§5) 250000 HCC827 (ATCC; CRL 2868) cells/well or 200000 NCI-H1975 (ATCC; CRL 5908) cells/well were seeded in 6-well dishes (Greiner Bio-One, 7657160) the day before drug treatment in RPMI medium containing 10% FCS and 2 mM L-Glutamine. […] Subsequently cells were washed 3 times with 2 ml PBS and lysed in 300 μl lysis buffer (RA1+1% TCEP [Sigma 646547]). RNA is extracted according to Macherey-Nagel NucleoSpin 8 RNA Kit protocol for vacuum (740698.5) for RNA extraction and RNA is eluted in H2O. RNA Library preparation and sequqnening was done externally. In short, RNA sequencing libraries were generated using TruSeq RNA Sample Prep Kit v2 following manufacturer's recommendations and index codes were added to attribute sequences to each sample. Samples were sequenced using an Illumnia platform, with paired-end reads. Illumina SBS technology utilizes a proprietary reversible terminator-based method that detects single bases as they are incorporated into DNA template strands. The original data obtained from the high throughput sequencing platforms were transformed to sequenced reads by base calling. Raw data are recorded in a FASTQ file which contains sequenced reads and corresponding sequencing quality information and were further processed to obtain transcripts per million values (TPM) for variable genes.

[4] = test system: NCI-H1975 lung cancer cells; assay: as above; format: cell-based; details: 1 μM, 24 h vs DMSO
Description: as §5

[5] = molecular target: T1, CBP bromodomain (Homo sapiens, UniProt Q92793); assay: CBP bromodomain binding assay (TR-FRET); details: 1 hour incubation at room temperature
T1 construct: purchased Cayman chemicals 600850
Description: Compounds solutions of 10 mM in DMSO were pre-diluted in DSMO to 25× stock solutions in DMSO. These were then diluted down to 4× in Assay buffer. A dilution series in Assay buffer was performed keeping the DMSO concentration stable. 5 μl compound in assay buffer was transferred into the assay plate (provided by assay kit) and the TR-FRET assay Cayman chemicals; 600850) was performed using the manufacture's instructions. After 1 hour incubation at room temperature in the darks, assay plates were read in a Tecan M1000 plate reader using the TR-FRET mode (top read; excitation 340 nm bandwidth 20 nM; emission 620 nm bandwidth 7 nM; gain optimal determined for the first well, number of flashes: 5; flash frequency 100 Hz; integration time: 500 μs, lag time: 100 μs, room temperature). The TR-FRET ratio was calculated by dividing 670 nm emission by 620 nm emission. […] Values were log transformed and non-linear regression with variable slope (4 parameters) was used to fit values to a dose-response curve to evaluate EC50 values (see table 5 below).

T1 sequence (Q92793 1085-1192 limits assumed): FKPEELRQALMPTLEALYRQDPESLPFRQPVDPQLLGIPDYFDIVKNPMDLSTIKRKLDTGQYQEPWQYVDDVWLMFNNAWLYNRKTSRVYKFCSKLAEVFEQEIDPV

IC50 ([2]; PatA BEC donor): 5010 nM | IC50 ([2]; PatB BEC donor): 1000 nM | IC50 ([2]; PatC BEC donor): 2000 nM
SMILES: COc1cncc(-c2cc(Nc3cccc(F)c3)nc([C@@H]3CC[C@H](C)N(C(C)=O)C3)n2)c1 [Compound 00004]
IC50 ([1]; Pat1 lung fibroblast donor): 1260 nM | IC50 ([1]; Pat2 lung fibroblast donor): 2510 nM | IC50 ([1]; Pat3 lung fibroblast donor): 2000 nM | inhibition of TGF-β1-mediated αSMA expression ([1]; all 3 IPF donors' lung fibroblast): full concentration-dependent inhibition | Potential toxicity Log [M] ([1]; Pat1): >−5.2 Log [M] | Potential toxicity Log [M] ([1]; Pat2): >−5.2 Log [M] | Potential toxicity Log [M] ([1]; Pat3): >−5.2 Log [M] | Max. Percentage Inhibition (PIN), [%] ([1]; Pat1 lung fibroblast donor): 90.3% | Max. Percentage Inhibition (PIN), [%] ([1]; Pat2 lung fibroblast donor): 127.1% | Max. Percentage Inhibition (PIN), [%] ([1]; Pat3 lung fibroblast donor): 105.1% | inhibition of TGF-β1-mediated FN1 expression ([2]; BEC from 2 IPF donors): full concentration-dependent inhibition | inhibition of TGF-β1-mediated FN1 expression ([2]; BEC from one IPF donor, partial = ΔPIN <75): partial | modulation of the number of nuclei ([2]; BEC, indicative of absence of potential cytotoxic side-effects): No modulation | Δ Percentage Inhibition (PIN), [%] ([2]; PatA BEC donor): 62.5% | Δ Percentage Inhibition (PIN), [%] ([2]; PatB BEC donor): 84.9% | Δ Percentage Inhibition (PIN), [%] ([2]; PatC BEC donor): 116.3% | expression of genes up-regulated during fibrotic disease (MMP, FN1, COL1A1), mRNA abundance (TPM) [3]: reduces expression of genes | expression of genes up-regulated during fibrotic disease (MMP, FN1, COL1A1), mRNA abundance (TPM) [4]: reduces expression of genes

EC50 [5]: < 200 nM
SMILES: CC(=O)N1C[C@H](c2nc(Nc3cc(F)c4cc[nH]c4c3)cc(-c3cccnc3)n2)CC[C@@H]1C [Compound 00040]

EC50 [5]: 200 to 1000 nM
SMILES: CC(=O)N1C[C@H](c2nc(Nc3ccccc3)cc(-c3cncnc3)n2)CC[C@@H]1C [Compound 00062]

EC50 [5]: < 200 nM
SMILES: CC(=O)N1C[C@H](c2nc(Nc3ccccc3)cc(-c3cncc4[nH]ccc34)n2)CC[C@@H]1C [Compound 00063]

EC50 [5]: 200 to 1000 nM
SMILES: CC(=O)N1C[C@H](c2nc(Nc3ccncc3)cc(-c3cccnc3)n2)CC[C@@H]1C [Compound 00077]

EC50 [5]: < 200 nM
SMILES: CC(=O)N1C[C@H](c2nc(Nc3cncc(C)c3)cc(-c3cncc4[nH]ccc34)n2)CC[C@@H]1C [Compound 00075]

IC50 ([2]; PatA BEC donor): 10000 nM | IC50 ([2]; PatC BEC donor): 63.1 nM
SMILES: COC(=O)c1ccc2c(c1)NC(=O)/C2=C(\Nc1ccc(N(C)C(=O)CN2CCN(C)CC2)cc1)c1ccccc1 [Nintedanib, reference compound]
IC50 ([1]; Pat1 lung fibroblast donor): 631 nM | IC50 ([1]; Pat2 lung fibroblast donor): 398 nM | IC50 ([1]; Pat3 lung fibroblast donor): 200 nM | Potential toxicity Log [M] ([1]; Pat1): >−5.5 Log [M] | Potential toxicity Log [M] ([1]; Pat2): >−7.0 Log [M] | Potential toxicity Log [M] ([1]; Pat3): >−6.0 Log [M] | Max. Percentage Inhibition (PIN), [%] ([1]; Pat1 lung fibroblast donor): 109.3% | Max. Percentage Inhibition (PIN), [%] ([1]; Pat2 lung fibroblast donor): 101% | Max. Percentage Inhibition (PIN), [%] ([1]; Pat3 lung fibroblast donor): 98.4% | Δ Percentage Inhibition (PIN), [%] ([2]; PatA BEC donor): 45.9% | Δ Percentage Inhibition (PIN), [%] ([2]; PatB BEC donor): 81.7% | Δ Percentage Inhibition (PIN), [%] ([2]; PatC BEC donor): 72.1%

From patent publication US12648947B2, “Heterocyclic derivatives, pharmaceutical compositions and their use in the treatment, amelioration or prevention of fibrotic disease” (TOLREMO THERAPEUTICS AG, priority 2020, dated 2026)
